Reference: US10344060B2 (priority 2013, dated 2019)

Target: hNav1.4 (Homo sapiens, UniProt P35499)
Assay: cell-based
Type: cell-based
Settings: Table 12; ratio of PX tonic IC50 values

hNav1.4, sequence (P35499 whole entry): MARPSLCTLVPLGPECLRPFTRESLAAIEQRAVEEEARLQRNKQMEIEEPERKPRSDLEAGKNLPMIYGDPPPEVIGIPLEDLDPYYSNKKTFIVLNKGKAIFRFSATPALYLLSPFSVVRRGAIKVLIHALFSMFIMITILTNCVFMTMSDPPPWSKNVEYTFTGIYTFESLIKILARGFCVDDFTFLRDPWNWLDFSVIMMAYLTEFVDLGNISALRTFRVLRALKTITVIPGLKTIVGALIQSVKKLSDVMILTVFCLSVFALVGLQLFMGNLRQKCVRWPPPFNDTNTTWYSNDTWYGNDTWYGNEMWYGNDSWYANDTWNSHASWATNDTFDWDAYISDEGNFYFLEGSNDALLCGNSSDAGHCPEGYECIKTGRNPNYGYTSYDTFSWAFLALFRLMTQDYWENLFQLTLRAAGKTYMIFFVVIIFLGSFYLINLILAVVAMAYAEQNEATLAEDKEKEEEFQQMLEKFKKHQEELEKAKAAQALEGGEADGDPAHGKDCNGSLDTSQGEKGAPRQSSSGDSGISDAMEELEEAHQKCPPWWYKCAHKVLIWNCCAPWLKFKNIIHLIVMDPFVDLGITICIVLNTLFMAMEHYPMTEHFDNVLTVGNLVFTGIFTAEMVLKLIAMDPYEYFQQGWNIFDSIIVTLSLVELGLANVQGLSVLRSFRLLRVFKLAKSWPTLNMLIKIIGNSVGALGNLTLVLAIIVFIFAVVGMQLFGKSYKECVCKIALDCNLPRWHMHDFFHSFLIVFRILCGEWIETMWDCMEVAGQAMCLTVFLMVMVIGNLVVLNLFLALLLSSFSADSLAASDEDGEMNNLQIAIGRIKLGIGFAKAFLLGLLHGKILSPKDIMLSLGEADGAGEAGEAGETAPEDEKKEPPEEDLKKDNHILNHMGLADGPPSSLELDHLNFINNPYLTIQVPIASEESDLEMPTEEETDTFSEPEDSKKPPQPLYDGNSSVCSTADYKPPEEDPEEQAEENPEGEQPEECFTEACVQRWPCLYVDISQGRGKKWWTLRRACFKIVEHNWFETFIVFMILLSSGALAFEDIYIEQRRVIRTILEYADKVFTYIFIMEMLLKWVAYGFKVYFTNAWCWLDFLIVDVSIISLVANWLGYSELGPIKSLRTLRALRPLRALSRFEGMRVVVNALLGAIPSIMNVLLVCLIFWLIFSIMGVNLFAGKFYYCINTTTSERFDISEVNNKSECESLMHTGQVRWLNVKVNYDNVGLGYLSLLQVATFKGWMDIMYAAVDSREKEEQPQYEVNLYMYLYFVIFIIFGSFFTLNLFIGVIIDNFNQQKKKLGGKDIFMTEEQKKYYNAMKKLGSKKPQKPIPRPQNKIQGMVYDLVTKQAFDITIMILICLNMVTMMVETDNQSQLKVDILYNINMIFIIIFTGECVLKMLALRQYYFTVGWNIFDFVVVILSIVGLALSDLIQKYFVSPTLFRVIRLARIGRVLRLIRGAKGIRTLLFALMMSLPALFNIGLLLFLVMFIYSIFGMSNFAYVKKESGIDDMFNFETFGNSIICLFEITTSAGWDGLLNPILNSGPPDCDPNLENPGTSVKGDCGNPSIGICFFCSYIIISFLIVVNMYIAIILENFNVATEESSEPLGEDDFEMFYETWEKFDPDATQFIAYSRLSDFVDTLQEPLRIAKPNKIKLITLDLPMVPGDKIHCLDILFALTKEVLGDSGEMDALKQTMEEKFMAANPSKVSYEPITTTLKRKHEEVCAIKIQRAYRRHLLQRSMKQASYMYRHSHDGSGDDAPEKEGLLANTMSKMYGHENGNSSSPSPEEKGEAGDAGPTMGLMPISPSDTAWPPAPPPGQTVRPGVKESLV

| Compound | Nav1.4/Nav1.7 |
| --- | --- |
| C#CC[C@H](N)C(=O)NCCCC[C@@H]1NC(=O)[C@H](CCCNC(=N)N)NC(=O)[C@H](CCCCN)NC(=O)[C@H](CO)NC(=O)[C@H](CC(=O)O)NC(=O)[C@@H]2CSSC[C@@H]3NC(=O)[C@H](CCC(=O)O)NC(=O)[C@H](CC(C)C)NC(=O)CNC(=O)[C@H](CCC(=O)O)NC(=O)[C@H](CSSC[C@H](NC(=O)[C@H](Cc4ccc(O)cc4)NC(=O)[C@@H](N)CC#N)C(=O)N[C@@H](CCC(N)=O)C(=O)N[C@@H](CCCCN)C(=O)N[C@@H](Cc4c[nH]c5ccccc45)C(=O)N[C@@H](CCCC)C(=O)N[C@@H](Cc4c[nH]c5ccccc45)C(=O)N[C@@H]([C@@H](C)O)C(=O)N2)NC(=O)[C@H](CSSC[C@@H](C(=O)N[C@@H](CCCNC(=N)N)C(=O)N[C@@H](CCCCN)C(=O)N[C@@H](Cc2ccc(O)cc2)C(=O)N[C@H](C(N)=O)[C@@H](C)CC)NC(=O)[C@H](Cc2c[nH]c4ccccc24)NC(=O)[C@H](CC(C)C)NC(=O)[C@H](CCCCN)NC3=O)NC1=O [compound 394] | 19130 |
| C#CC[C@H](N)C(=O)NCCCC[C@@H]1NC(=O)[C@H](CCCNC(=N)N)NC(=O)[C@H](CCCCN)NC(=O)[C@H](CO)NC(=O)[C@H](CC(=O)O)NC(=O)[C@@H]2CSSC[C@@H]3NC(=O)[C@H](CCCNC(=N)N)NC(=O)[C@H](CC(C)C)NC(=O)CNC(=O)[C@H](CCC(=O)O)NC(=O)[C@H](CSSC[C@H](NC(=O)[C@H](Cc4ccc(O)cc4)NC(=O)[C@@H](N)CCC)C(=O)N[C@@H](CCC(N)=O)C(=O)N[C@@H](CCCCN)C(=O)N[C@@H](Cc4c[nH]c5ccccc45)C(=O)N[C@@H](CC(C)C)C(=O)N[C@@H](Cc4c[nH]c5ccccc45)C(=O)N[C@@H]([C@@H](C)O)C(=O)N2)NC(=O)[C@H](CSSC[C@@H](C(=O)N[C@@H](CCCNC(=N)N)C(=O)N[C@@H](CCCCN)C(=O)N[C@H](C(=O)N[C@H](C(N)=O)[C@@H](C)CC)[C@@H](C)CC)NC(=O)[C@H](Cc2c[nH]c4ccccc24)NC(=O)[C@H](CC(C)C)NC(=O)[C@H](CCCCN)NC3=O)NC1=O [compound 438] | 7 |
| C#CC[C@@H]1NC(=O)[C@@H]2CSSC[C@H](NC(=O)[C@H](Cc3ccc(O)cc3)NC(=O)[C@@H](N)CC#N)C(=O)N[C@@H](CCC(N)=O)C(=O)N[C@@H](CCCCN)C(=O)N[C@@H](Cc3c[nH]c4ccccc34)C(=O)N[C@@H](CCCC)C(=O)N[C@@H](Cc3c[nH]c4ccccc34)C(=O)N[C@@H]([C@@H](C)O)C(=O)N[C@H]3CSSC[C@H](NC(=O)[C@H](CCC(=O)O)NC(=O)[C@H](CC(C)C)NC(=O)CNC1=O)C(=O)N[C@@H](CCCCN)C(=O)N[C@@H](CC(C)C)C(=O)N[C@@H](Cc1c[nH]c4ccccc14)C(=O)N[C@H](C(=O)N[C@@H](CCCNC(=N)N)C(=O)N[C@@H](CCCCN)C(=O)N[C@@H](Cc1ccc(O)cc1)C(=O)N[C@H](C(N)=O)[C@@H](C)CC)CSSC[C@H](NC(=O)[C@H](C)NC(=O)[C@H](CCCNC(=N)N)NC(=O)[C@H](CCCCN)NC(=O)[C@H](CO)NC(=O)[C@H](CC(=O)O)NC3=O)C(=O)N2 [compound 397] | 20 |
